Measured values published in ChEMBL document CHEMBL1275505, “Smqnr, a new chromosome-carried quinolone resistance gene in Stenotrophomonas maltophilia” (2008).
≈ marks a conversion by molar mass, not a printed value.

Columns and labels:
Format in all cases: functional
Escherichia coli [1] = assay: Antimicrobial activity against Escherichia coli TOP10 harboring pSmQnr7 carrying Smqnr gene by Etest
Escherichia coli [2] = assay: Antimicrobial activity against Escherichia coli TOP10 harboring pSmQnr3 carrying Smqnr gene by Etest
Escherichia coli [3] = assay: Antimicrobial activity against Escherichia coli TOP10 harboring pSmQnr6 carrying Smqnr gene by Etest
Escherichia coli [4] = assay: Antimicrobial activity against Escherichia coli TOP10 harboring pSmQnr10 carrying Smqnr gene by Etest
Escherichia coli [5] = assay: Antimicrobial activity against Escherichia coli TOP10 harboring pSmQnr11 carrying Smqnr gene by Etest
Escherichia coli [6] = assay: Antimicrobial activity against Escherichia coli TOP10 harboring pSmQnr1 carrying Smqnr gene by Etest
Escherichia coli [7] = assay: Antimicrobial activity against Escherichia coli TOP10 harboring pSmQnr8 carrying Smqnr gene by Etest
Escherichia coli [8] = assay: Antimicrobial activity against Escherichia coli TOP10 by Etest
Escherichia coli [9] = assay: Antimicrobial activity against Escherichia coli TOP10 harboring pSmQnr4 carrying Smqnr gene by Etest
Escherichia coli [10] = assay: Antimicrobial activity against Escherichia coli TOP10 harboring pSmQnr9 carrying Smqnr gene by Etest
Escherichia coli [11] = assay: Antimicrobial activity against Escherichia coli TOP10 harboring pSmQnr5 carrying Smqnr gene by Etest
Escherichia coli [12] = assay: Antimicrobial activity against Escherichia coli TOP10 harboring pSmQnr2 carrying Smqnr gene by Etest

SMILES | MIC (Escherichia coli [1]) [µg/mL] | MIC (Escherichia coli [2]) [ng/mL] | MIC (Escherichia coli [3]) [µg/mL] | MIC (Escherichia coli [4]) [µg/mL] | MIC (Escherichia coli [5]) [µg/mL] | MIC (Escherichia coli [6]) [µg/mL] | MIC (Escherichia coli [7]) [µg/mL] | MIC (Escherichia coli [8]) [ng/mL] | MIC (Escherichia coli [9]) [ng/mL] | MIC (Escherichia coli [10]) [µg/mL] | MIC (Escherichia coli [11]) [µg/mL] | MIC (Escherichia coli [12]) [µg/mL]
COc1c(N2CCNC(C)C2)c(F)cc2c(=O)c(C(=O)O)cn(C3CC3)c12 (stereo unspecified) [GATIFLOXACIN] | 0.023 (≈ 0.0613 µM) | 3 (≈ 0.00799 µM) | 0.064 (≈ 0.17 µM) | 0.003 (≈ 0.00799 µM) | 0.003 (≈ 0.00799 µM) | 0.008 (≈ 0.0213 µM) | 0.002 (≈ 0.00533 µM) | < 2 | 2 (≈ 0.00533 µM) | 0.002 (≈ 0.00533 µM) | – | –
C[C@H]1COc2c(N3CCN(C)CC3)c(F)cc3c(=O)c(C(=O)O)cn1c23.C[C@H]1COc2c(N3CCN(C)CC3)c(F)cc3c(=O)c(C(=O)O)cn1c23.O [LEVOFLOXACIN] | 0.023 | 6 | 0.023 | 0.023 | – | 0.023 | – | 4 | 6 | – | – | –
COc1c(N2C[C@@H]3CCCN[C@@H]3C2)c(F)cc2c(=O)c(C(=O)O)cn(C3CC3)c12 [MOXIFLOXACIN] | 0.008 (≈ 0.0199 µM) | 2 (≈ 0.00498 µM) | 0.047 (≈ 0.117 µM) | 0.004 (≈ 0.00996 µM) | 0.002 (≈ 0.00498 µM) | 0.012 (≈ 0.0299 µM) | 0.002 (≈ 0.00498 µM) | < 2 | 2 (≈ 0.00498 µM) | – | 0.003 (≈ 0.00747 µM) | –
CCn1cc(C(=O)O)c(=O)c2ccc(C)nc21 [NALIDIXIC ACID] | 2 (≈ 8.61 µM) | 1500 (≈ 6.46 µM) | 2 (≈ 8.61 µM) | 2 (≈ 8.61 µM) | 2 (≈ 8.61 µM) | 3 (≈ 12.9 µM) | 2 (≈ 8.61 µM) | 1500 (≈ 6.46 µM) | 1500 (≈ 6.46 µM) | 1.5 (≈ 6.46 µM) | 2 (≈ 8.61 µM) | 2 (≈ 8.61 µM)
CCn1cc(C(=O)O)c(=O)c2cc(F)c(N3CCNCC3)cc21 [NORFLOXACIN] | 0.047 (≈ 0.147 µM) | 32 (≈ 0.1 µM) | 0.064 (≈ 0.2 µM) | 0.032 (≈ 0.1 µM) | 0.032 (≈ 0.1 µM) | 0.064 (≈ 0.2 µM) | 0.047 (≈ 0.147 µM) | 32 (≈ 0.1 µM) | 32 (≈ 0.1 µM) | 0.032 (≈ 0.1 µM) | 0.032 (≈ 0.1 µM) | 0.047 (≈ 0.147 µM)
C[C@@H]1CN(c2c(F)c(N)c3c(=O)c(C(=O)O)cn(C4CC4)c3c2F)C[C@H](C)N1 [SPARFLOXACIN] | 0.008 (≈ 0.0204 µM) | – | 0.125 (≈ 0.319 µM) | 0.002 (≈ 0.0051 µM) | – | 0.004 (≈ 0.0102 µM) | – | < 2 | – | – | – | –
